Laboratory results taken from ChEMBL document CHEMBL1667790, “Synthesis and antioxidant activity of long chain alkyl hydroxycinnamates” (Eur J Med Chem, 2011).

Key:
[1] = Antioxidant activity assessed as trolox equivalents of ABTS radical scavenging activity by TEAC assay; format: functional
[2] = system: Radical scavenging activity; assay: Antioxidant activity assessed as residual DPPH radical scavenging activity after 45 mins by spectrophotometrically; format: functional

SMILES | Activity [1] | IC50 [2]
CCCCCCCCCCCCCCCCCCOC(=O)/C=C/c1ccc(O)c(O)c1 | 1.02 mmol | 38 µM
CCCCCCCCCCCCCCOC(=O)/C=C/c1ccc(O)cc1 |  | > 100 µM
COc1cc(/C=C/C(=O)O)ccc1O [FERULATE] | 1.76 mmol | 112 µM
CCCCCCCCCCCCCCCCCCOC(=O)/C=C/c1ccc(O)c(OC)c1 | 1.8 mmol | 117 µM
CCCCCCCCCCCCCCOC(=O)/C=C/c1ccc(O)c(O)c1 | 0.98 mmol | 31.9 µM
CCCCCCCCCCCCCCOC(=O)/C=C/c1cc(OC)c(O)c(OC)c1 | 1.18 mmol | 77.2 µM
O=C(O)/C=C/c1ccc(O)c(O)c1 [CAFFEIC ACID] | 0.95 mmol | 34.1 µM
O=C(O)/C=C/c1ccc(O)cc1 [COUMARIC ACID] |  | > 100 µM
CCCCCCCCCCCCCCOC(=O)/C=C/c1ccc(O)c(OC)c1 | 1.66 mmol | 110 µM
CCCCCCCCCCCCCCCCCCOC(=O)/C=C/c1cc(OC)c(O)c(OC)c1 | 1.16 mmol | 77.1 µM
CCCCCCCCCCCCCCCCOC(=O)/C=C/c1ccc(O)c(O)c1 | 0.96 mmol | 33 µM
COc1cc(/C=C/C(=O)O)cc(OC)c1O [SINAPINATE] | 1.14 mmol | 66 µM
